Here are results for one compound from doi:10.1101/2025.05.23.655777v1 (biorxiv, 2025).

As a reminder, the Ki is the equilibrium dissociation constant of an inhibitor or competing ligand from its target.

The target of the assay is GABA-AT; GABA aminotransferase 1 (recombinant) (Arabidopsis thaliana, UniProt Q94CE5). In words: inhibition kinetics, LDH-coupled or HPLC assay, competitive fit. The format is biochemical.

Turning to `N[C@@H](CS)C(=O)O` [L-cysteine], the Ki turned out to be 420 µM.
